≈ marks a conversion by molar mass, not a printed value.
How the values were obtained:
Escherichia coli = assay: Antibacterial activity against […] assessed as zone of inhibition by cup-plate agar diffusion method; format: functional
Klebsiella pneumoniae = assay: Antibacterial activity against Klebsiella pneumoniae ATCC10031 assessed as zone of inhibition by cup-plate agar diffusion method; format: functional
Pseudomonas aeruginosa = assay: Antibacterial activity against Pseudomonas aeruginosa ATCC27853 assessed as zone of inhibition by cup-plate agar diffusion method; format: functional
Staphylococcus aureus [1] = assay: Antibacterial activity against Staphylococcus aureus ATCC6538 assessed as zone of inhibition by cup-plate agar diffusion method; format: functional
Staphylococcus aureus [2] = assay: Antibacterial activity against methicillin-resistant Staphylococcus aureus AUMC 261 assessed as zone of inhibition by cup-plate agar diffusion method; format: functional
DNA gyrase = DNA gyrase (Escherichia coli, UniProt P0AES4+P0AES6); assay: Inhibition of Escherichia coli DNA gyrase supercoiling activity using […] as substrate incubated for 15 to 30 mins by agarose gel electrophoresis analysis; format: protein-complex assay
[3] = Inhibition of Escherichia coli topoisomerase 4 mediated relaxation of supercoiled pHOT1 DNA at expense of ATP hydrolysis by ethidium bromide staining based agarose gel electrophoresis

MIC (Escherichia coli) | MIC (Klebsiella pneumoniae) | MIC (Pseudomonas aeruginosa) | MIC (Staphylococcus aureus [1]) | Structure (SMILES) | MIC (Staphylococcus aureus [2]) | IC50 (DNA gyrase) | IC50 [3]
11.6 µM (≈ 6.25 µg/mL) | 11.6 µM (≈ 6.25 µg/mL) | > 100 µM | 18.5 µM (≈ 10 µg/mL) | CCCn1c(=O)cc(NC(=O)CN2CCN(c3cc4c(cc3F)c(=O)c(C(=O)O)cn4C3CC3)CC2)[nH]c1=O |  |  | 
18.9 µM (≈ 12.5 µg/mL) | 37.8 µM (≈ 25 µg/mL) | > 100 µM | > 100 µM | Cc1ccc(NC(=O)CSc2nc(NC(=O)CN3CCN(c4cc5c(cc4F)c(=O)c(C(=O)O)cn5C4CC4)CC3)cc(=O)[nH]2)cc1 |  |  | 
4.59 µM (≈ 3.13 µg/mL) | 9.19 µM (≈ 6.26 µg/mL) | > 100 µM | > 100 µM | N=C1N=C(SCC(=O)N2CCN(c3cc4c(cc3F)c(=O)c(C(=O)O)cn4C3CC3)CC2)NC(=O)/C1=C/c1ccc(Br)cc1 |  |  | 
4.61 µM (≈ 3.12 µg/mL) | 18.5 µM (≈ 12.5 µg/mL) | > 100 µM | > 100 µM | COc1ccc(NC(=O)CSc2nc(NC(=O)CN3CCN(c4cc5c(cc4F)c(=O)c(C(=O)O)cn5C4CC4)CC3)cc(=O)[nH]2)cc1 |  |  | 
2.73 µM (≈ 1.56 µg/mL) | 5.47 µM (≈ 3.12 µg/mL) | > 100 µM | 17.5 µM (≈ 10 µg/mL) | CCCCSc1nc(NC(=O)CN2CCN(c3cc4c(cc3F)c(=O)c(C(=O)O)cn4C3CC3)CC2)cc(=O)[nH]1 |  |  | 
9.66 µM (≈ 6.26 µg/mL) | 19.3 µM (≈ 12.5 µg/mL) | > 100 µM | > 100 µM | O=C(CSc1nc(NC(=O)CN2CCN(c3cc4c(cc3F)c(=O)c(C(=O)O)cn4C3CC3)CC2)cc(=O)[nH]1)Nc1ccccc1 |  |  | 
1.48 µM (≈ 0.779 µg/mL) | 2.97 µM (≈ 1.56 µg/mL) | 2.97 µM (≈ 1.56 µg/mL) | > 100 µM | Cn1c(NC(=O)CN2CCN(c3cc4c(cc3F)c(=O)c(C(=O)O)cn4C3CC3)CC2)cc(=O)n(C)c1=O |  |  | 
4.91 µM (≈ 3.13 µg/mL) | 4.91 µM (≈ 3.13 µg/mL) | > 100 µM | > 100 µM | N=C1N=C(SCC(=O)N2CCN(c3cc4c(cc3F)c(=O)c(C(=O)O)cn4C3CC3)CC2)NC(=O)/C1=C/c1ccc(Cl)cc1 |  |  | 
5.03 µM (≈ 3.12 µg/mL) | 20.2 µM (≈ 12.5 µg/mL) | > 100 µM | > 100 µM | N=C1N=C(SCC(=O)N2CCN(c3cc4c(cc3F)c(=O)c(C(=O)O)cn4C3CC3)CC2)NC(=O)/C1=C/c1ccc(F)cc1 |  |  | 
3.05 µM (≈ 1.56 µg/mL) | 6.1 µM (≈ 3.13 µg/mL) | > 100 µM | > 100 µM | Cn1c(=O)cc(NC(=O)CN2CCN(c3cc4c(cc3F)c(=O)c(C(=O)O)cn4C3CC3)CC2)[nH]c1=O |  |  | 
4.71 µM (≈ 3.12 µg/mL) | 4.71 µM (≈ 3.12 µg/mL) | 2.97 µM (≈ 1.97 µg/mL) | > 100 µM | COc1ccc(/C=C2\C(=N)N=C(SCC(=O)N3CCN(c4cc5c(cc4F)c(=O)c(C(=O)O)cn5C4CC4)CC3)NC2=O)cc1OC |  |  | 
11.3 µM (≈ 6.26 µg/mL) | 22.6 µM (≈ 12.5 µg/mL) | > 100 µM | 18.1 µM (≈ 10 µg/mL) | C=CCSc1nc(NC(=O)CN2CCN(c3cc4c(cc3F)c(=O)c(C(=O)O)cn4C3CC3)CC2)cc(=O)[nH]1 |  |  | 
5.61 µM (≈ 3.12 µg/mL) | 11.2 µM (≈ 6.26 µg/mL) | > 100 µM | 18 µM (≈ 10 µg/mL) | CCCSc1nc(NC(=O)CN2CCN(c3cc4c(cc3F)c(=O)c(C(=O)O)cn4C3CC3)CC2)cc(=O)[nH]1 |  |  | 
1.3 µM (≈ 0.783 µg/mL) | 5.18 µM (≈ 3.12 µg/mL) | 2.59 µM (≈ 1.56 µg/mL) | > 100 µM | N=C1N=C(SCC(=O)N2CCN(c3cc4c(cc3F)c(=O)c(C(=O)O)cn4C3CC3)CC2)NC(=O)/C1=C/c1ccccc1 |  |  | 

Structure (SMILES) | MIC (Escherichia coli) | MIC (Klebsiella pneumoniae) | MIC (Pseudomonas aeruginosa) | MIC (Staphylococcus aureus [1]) | MIC (Staphylococcus aureus [2]) | IC50 (DNA gyrase) | IC50 [3]
COc1cc(/C=C2\C(=N)N=C(SCC(=O)N3CCN(c4cc5c(cc4F)c(=O)c(C(=O)O)cn5C4CC4)CC3)NC2=O)ccc1O | 2.41 µM (≈ 1.56 µg/mL) | 4.81 µM (≈ 3.12 µg/mL) | > 100 µM | 7.58 µM (≈ 4.92 µg/mL) | 1.57 µM (≈ 1.02 µg/mL) |  | 
COc1cc(/C=C2\C(=N)N=C(SCC(=O)N3CCN(c4cc5c(cc4F)c(=O)c(C(=O)O)cn5C4CC4)CC3)NC2=O)cc(OC)c1OC | 4.51 µM (≈ 3.12 µg/mL) | 9.03 µM (≈ 6.26 µg/mL) | > 100 µM | 4.25 µM (≈ 2.94 µg/mL) | 0.096 µM (≈ 0.0665 µg/mL) |  | 
CSc1nc(NC(=O)CN2CCN(c3cc4c(cc3F)c(=O)c(C(=O)O)cn4C3CC3)CC2)cc(=O)[nH]1 | 2.95 µM (≈ 1.56 µg/mL) | 5.91 µM (≈ 3.12 µg/mL) | > 100 µM | 2.37 µM (≈ 1.25 µg/mL) | 0.046 µM (≈ 0.0243 µg/mL) | 5.72 µM | 7.77 µM
O=C(CSc1nc(NC(=O)CN2CCN(c3cc4c(cc3F)c(=O)c(C(=O)O)cn4C3CC3)CC2)cc(=O)[nH]1)Nc1ccc(Cl)cc1 | 18.4 µM (≈ 12.5 µg/mL) | 4.58 µM (≈ 3.12 µg/mL) | > 100 µM | 14.7 µM (≈ 10 µg/mL) | 7.22 µM (≈ 4.93 µg/mL) |  | 
COc1ccc(/C=C2\C(=N)N=C(SCC(=O)N3CCN(c4cc5c(cc4F)c(=O)c(C(=O)O)cn5C4CC4)CC3)NC2=O)cc1 | 4.94 µM (≈ 3.13 µg/mL) | 2.47 µM (≈ 1.56 µg/mL) | > 100 µM | 15.8 µM (≈ 10 µg/mL) | 2.43 µM (≈ 1.54 µg/mL) |  | 
O=C(CN1CCN(c2cc3c(cc2F)c(=O)c(C(=O)O)cn3C2CC2)CC1)Nc1cc(=O)[nH]c(=O)[nH]1 | 0.78 µM (≈ 0.389 µg/mL) | 1.57 µM (≈ 0.783 µg/mL) | > 100 µM | 1.25 µM (≈ 0.623 µg/mL) | 0.031 µM (≈ 0.0155 µg/mL) | 1.72 µM | 4.36 µM
O=C(O)c1cn(C2CC2)c2cc(N3CCNCC3)c(F)cc2c1=O [CIPROFLOXACIN] | 0.6 µM (≈ 0.199 µg/mL) | 1.21 µM (≈ 0.401 µg/mL) | 0.6 µM (≈ 0.199 µg/mL) | 7.58 µM (≈ 2.51 µg/mL) | 0.57 µM (≈ 0.189 µg/mL) |  | 8.16 µM

Source: ChEMBL document CHEMBL5214940, “New potent ciprofloxacin-uracil conjugates as DNA gyrase and topoisomerase IV inhibitors against methicillin-resistant Staphylococcus aureus” (Bioorg Med Chem, 2022)
